Measured values from patent publication US20240294541A1, “COMPOUNDS CONSTITUTING C20-MODIFIED SALINOMYCIN DERIVATIVES, A METHOD FOR OBTAINING THE SAME, A COMPOSITION CONTAINING THE SAME AND A USE OF SAID COMPOUNDS” (FILECLO SPOLKA Z OGRANICZONA ODPOWIEDZIALNOSCIA, priority 2021, published 2024).

Columns and labels:
Type in all cases: cell-based
[1] = system: NCI-H23 (human lung cancer); assay: In vitro cytotoxicity, SRB assay, NCI-H23; conditions: for IC50: Homo sapiens, NCI-H23, 72 h with compound, SRB, n/a = non-active compound, read-out: NCI-H23 IC50; for NCI-H23 SI: selectivity coefficient vs normal BALB/3T3 cells
[2] = system: PFSK-1 (malignant primitive neuroectodermal tumour); assay: In vitro cytotoxicity, SRB assay, PFSK-1; conditions: for IC50: Homo sapiens, PFSK-1, 72 h with compound, SRB, n/a = non-active compound, read-out: PFSK-1 IC50; for PFSK-1 SI: selectivity coefficient vs normal BALB/3T3 cells
[3] = system: A2780 (human ovarian cancer); assay: In vitro cytotoxicity, SRB assay, A2780; conditions: for IC50: Homo sapiens, A2780, 72 h with compound, SRB, n/a = non-active compound, read-out: A2780 IC50; for A2780 SI: selectivity coefficient vs normal BALB/3T3 cells
[4] = system: A2780Cis (cisplatin-resistant human ovarian cancer); assay: In vitro cytotoxicity, SRB assay, A2780Cis; conditions: for IC50: Homo sapiens, A2780cis, 72 h, read-out: A2780Cis IC50 (nM)
[5] = system: A375 (human melanoma); assay: In vitro cytotoxicity, SRB assay, A375; conditions: for IC50: Homo sapiens, A-375, 72 h with compound, SRB, n/a = non-active compound, read-out: A375 IC50; for A375 SI: selectivity coefficient vs normal BALB/3T3 cells
[6] = system: Hs294T (human melanoma); assay: cells; conditions: for IC50: Homo sapiens, Hs 294T, 72 h with compound, SRB, n/a = non-active compound, read-out: Hs294T IC50; for Hs294T SI: selectivity coefficient vs normal BALB/3T3 cells
[7] = system: PLC/PRF/5 (human liver cancer); assay: cells; conditions: for IC50: Homo sapiens, PLC-PRF-5, 72 h with compound, SRB, n/a = non-active compound, read-out: PLC/PRF/5 IC50; for PLC/PRF/5 SI: selectivity coefficient vs normal BALB/3T3 cells
[8] = system: SNU-16 (human gastric cancer); assay: cells; conditions: for IC50: Homo sapiens, SNU-16, 72 h with compound, MTT, n/a = non-active compound, read-out: SNU-16 IC50; for SNU-16 SI: selectivity coefficient vs normal BALB/3T3 cells
[9] = system: KG-1 (human acute myeloid leukaemia); assay: In vitro cytotoxicity, MTT assay, KG-1; conditions: for IC50: Homo sapiens, 72 h with compound, MTT, n/a = non-active compound; for KG-1 SI: selectivity coefficient vs normal BALB/3T3 cells
[10] = system: MIA PaCa-2 (human pancreatic cancer); assay: cells; conditions: for IC50: Homo sapiens, MIA PaCa-2, 72 h with compound, SRB, n/a = non-active compound, read-out: MIA PaCa-2 IC50; for MIA PaCa-2 SI: selectivity coefficient vs normal BALB/3T3 cells
[11] = system: BALB/3T3 (normal mouse fibroblasts); assay: In vitro cytotoxicity, SRB assay, normal BALB/3T3 fibroblasts; conditions: Mus musculus, BALB/3T3; normal cells; 72 h with compound, SRB; n/a = non-active compound; read-out: BALB/3T3 IC50

| SMILES | IC50 [1] | NCI-H23 SI [1] | IC50 [2] | PFSK-1 SI [2] | IC50 [3] | A2780 SI [3] | A2780Cis RI [4] | A2780Cis SI [4] | IC50 [4] | IC50 [5] | A375 SI [5] | IC50 [6] | Hs294T SI [6] | IC50 [7] | PLC/PRF/5 SI [7] | IC50 [8] | SNU-16 SI [8] | IC50 [9] | KG-1 SI [9] | IC50 [10] | also measured |
| --- | --- | --- | --- | --- | --- | --- | --- | --- | --- | --- | --- | --- | --- | --- | --- | --- | --- | --- | --- | --- | --- |
| CC[C@@H](C(=O)[C@@H](C)[C@@H](O)[C@H](C)[C@@H]1O[C@@H]([C@@H](CC)C(=O)O)CC[C@@H]1C)[C@H]1O[C@]2(C=C[C@@H](NC(=O)NC3CCCC3)[C@]3(CC[C@@](C)([C@H]4CC[C@](O)(CC)[C@H](C)O4)O3)O2)[C@H](C)C[C@@H]1C [FLC-00351-1] | 112 nM | 0.6 | 10.7 nM | 6.2 | 0.45 nM | 148.7 | 1.2 | 125.6 | 0.53 nM | 104 nM | 0.6 | 360 nM | 0.2 | 22.3 nM | 3.0 | 24.5 nM | 2.7 | 23.7 nM | 2.8 | 22 nM | MIA PaCa-2 SI [10]: 3.0; IC50 [11]: 66.6 nM |
| CCOC(=O)CNC(=S)N[C@@H]1C=C[C@]2(O[C@H]([C@@H](CC)C(=O)[C@@H](C)[C@@H](O)[C@H](C)[C@@H]3O[C@@H]([C@@H](CC)C(=O)O)CC[C@@H]3C)[C@@H](C)C[C@H]2C)O[C@@]12CC[C@@](C)([C@H]1CC[C@](O)(CC)[C@H](C)O1)O2 [FLC-00352-1] | 234 nM | 0.5 | 45.2 nM | 2.5 | 2.14 nM | 53.8 | 1.8 | 30.4 | 3.77 nM | 459 nM | 0.3 | 416 nM | 0.3 | 32.9 nM | 3.5 | 52.8 nM | 2.2 | 30 nM | 3.8 | 50.9 nM | MIA PaCa-2 SI [10]: 2.3; IC50 [11]: 115 nM |
| C=CCNC(=O)N[C@@H]1C=C[C@]2(O[C@H]([C@@H](CC)C(=O)[C@@H](C)[C@@H](O)[C@H](C)[C@@H]3O[C@@H]([C@@H](CC)C(=O)O)CC[C@@H]3C)[C@@H](C)C[C@H]2C)O[C@@]12CC[C@@](C)([C@H]1CC[C@](O)(CC)[C@H](C)O1)O2 [FLC-00353-1] | 410 nM | 0.6 | 13.4 nM | 16.9 | 1.14 nM | 199.8 | 1.1 | 180.6 | 1.26 nM | 107 nM | 2.1 | 612 nM | 0.4 | 31.5 nM | 7.2 | 88.6 nM | 2.6 | 34.3 nM | 6.6 | 28.9 nM | MIA PaCa-2 SI [10]: 7.8; IC50 [11]: 227 nM |
| CCNC(=O)N[C@@H]1C=C[C@]2(O[C@H]([C@@H](CC)C(=O)[C@@H](C)[C@@H](O)[C@H](C)[C@@H]3O[C@@H]([C@@H](CC)C(=O)O)CC[C@@H]3C)[C@@H](C)C[C@H]2C)O[C@@]12CC[C@@](C)([C@H]1CC[C@](O)(CC)[C@H](C)O1)O2 [FLC-00358-1] | 113 nM | 2.0 | 32.3 nM | 6.9 | 3.32 nM | 67.0 | 0.7 | 98.1 | 2.27 nM | 208 nM | 1.1 | 1640 nM | 0.1 | 52.8 nM | 4.2 | 67.9 nM | 3.3 | 67.7 nM | 3.3 | 45.6 nM | MIA PaCa-2 SI [10]: 4.9; IC50 [11]: 223 nM |
| CC[C@@H](C(=O)[C@@H](C)[C@@H](O)[C@H](C)[C@@H]1O[C@@H]([C@@H](CC)C(=O)O)CC[C@@H]1C)[C@H]1O[C@]2(C=C[C@@H](NC(=O)Nc3ccc(F)cc3F)[C@]3(CC[C@@](C)([C@H]4CC[C@](O)(CC)[C@H](C)O4)O3)O2)[C@H](C)C[C@@H]1C [FLC-00359-1] | 148 nM | 0.5 | 19.4 nM | 3.8 | 1.62 nM | 45.1 | 0.7 | 65.3 | 1.12 nM | 228 nM | 0.3 | 212 nM | 0.3 | 38.6 nM | 1.9 | 9.57 nM | 7.6 | 13.1 nM | 5.6 | 37.7 nM | MIA PaCa-2 SI [10]: 1.9; IC50 [11]: 73 nM |
| CC[C@@H](C(=O)[C@@H](C)[C@@H](O)[C@H](C)[C@@H]1O[C@@H]([C@@H](CC)C(=O)O)CC[C@@H]1C)[C@H]1O[C@]2(C=C[C@@H](NC(=O)NCCc3ccccc3)[C@]3(CC[C@@](C)([C@H]4CC[C@](O)(CC)[C@H](C)O4)O3)O2)[C@H](C)C[C@@H]1C [FLC-00362-1] | 62.4 nM | 2.5 | 38.4 nM | 4.0 | 11.3 nM | 13.6 | 1.1 | 12.9 | 11.9 nM | 281 nM | 0.5 | 473 nM | 0.3 | 32 nM | 4.8 | 17 nM | 9.0 | 36.8 nM | 4.2 | 73.8 nM | MIA PaCa-2 SI [10]: 2.1; IC50 [11]: 153 nM |
| CC[C@@H](C(=O)[C@@H](C)[C@@H](O)[C@H](C)[C@@H]1O[C@@H]([C@@H](CC)C(=O)O)CC[C@@H]1C)[C@H]1O[C@]2(C=C[C@@H](NC(=O)Nc3ccc(F)cc3)[C@]3(CC[C@@](C)([C@H]4CC[C@](O)(CC)[C@H](C)O4)O3)O2)[C@H](C)C[C@@H]1C [FLC-00363-1] | 2.78 nM | 22.4 | 4.06 nM | 15.3 | 2 nM | 31.1 | 0.7 | 44.3 | 1.41 nM | 37.3 nM | 1.7 | 27.3 nM | 2.3 | 13 nM | 4.8 | 4.46 nM | 14.0 | 11.7 nM | 5.3 | 19.3 nM | MIA PaCa-2 SI [10]: 3.2; IC50 [11]: 62.2 nM |
